From patent US20230035578A1, “CONTROLLED RELEASE OF COMPOUNDS” (TECHNISCHE UNIVERSITAET MUENCHEN, priority 2019, published 2023)
Counter-ions that a name gives are not always drawn.

Test: Drug release from surface-bound mucin layer on PDMS (UV absorbance)
Format: physicochemical
Method: The coupling reaction was performed as described previously^9. Briefly, PDMS was treated with O2 plasma at 0.4 mbar pressure and an intensity of 30 W for 90 s. The plasma treatment replaces the […] groups on the polymer surface with hydroxyl groups, which enables a covalent attachment of silane molecules. The silane was used as a coupling agent to further allow for attaching porcine gastric mucin to the surface via carbodiimide coupling. Thus, we here used N-[3-Trimethoxysilyl)propyl]ethylenediamine triacetic acid trisodium salt (TMS-EDTA, abcr, Karlsruhe, Germany), which carries three carboxy groups on the other end. TMS-EDTA was diluted to a final concentration of 0.1% (w/v) in 10 mM Acetate buffer (pH=4.5). The activated PDMS samples were then incubated in the silane solution for 5 h at 60° C. Afterwards, the samples were washed in 80% ethanol (Carl Roth) for 1 h to remove unbound residues before they were placed in the oven at 60° C. for another 60 min to stabilize the bond between the PDMS and the silane.
In the next step, the carboxyl groups of the silane were activated. Therefore, the surface was covered with 100 mM MES buffer (pH=5.0) containing 5 mM 1-Ethyl-3-(3-dimethylaminopropyl)-carbodiimid-hydrochloride (EDC, Carl Roth) and 5 mM N-Hydroxysulfosuccinimide (sulfo-NHS, abcr) at RT for 30 min. Afterwards, the EDC-NHS solution was replaced by phosphate-buffered saline (pH=7.4, Lonza, Velviers, Belgium) containing 0.1% (w/v) of purified mucin and stored at 4° C. overnight. Amine groups from the mucin protein core then react with the EDC activated groups of the silane and form a stable covalent bond.
PDMS was allowed to crosslink at 60° C. overnight. Afterwards, this PDMS layer was coated with mucin as described in Section 1.2.
The mucin layer was loaded with the drug by incubating it in a drug-containing solution (TCL or VAC, 0.5 mg/mL) at 4° C. overnight. […] […] Before starting the release experiment, excessive glycerol, drug, and salt were removed and replaced by 2 mL of ultrapure water.
The […], and the release of TCL was tracked spectroscopically with a specord210 spectral photometer (Analytikjena, Jena, Germany) at 360 nm. The amount of released drug was determined by a standard curve which was generated by measuring serial dilutions of a drug solution (see FIG. 1). The release of VAN was also tracked spectroscopically, however, at 282 nm (for calibration curve, see FIG. 2).

## CN[C@H](CC(C)C)C(=O)N[C@H]1C(=O)N[C@@H](CC(N)=O)C(=O)N[C@H]2C(=O)N[C@H]3C(=O)N[C@H](C(=O)N[C@H](C(=O)O)c4cc(O)cc(O)c4-c4cc3ccc4O)[C@H](O)c3ccc(c(Cl)c3)Oc3cc2cc(c3O[C@@H]2O[C@H](CO)[C@@H](O)[C@H](O)[C@H]2O[C@H]2C[C@](C)(N)[C@H](O)[C@H](C)O2)Oc2ccc(cc2Cl)[C@H]1O [Vancomycin, Vancomycin hydrochloride]
Group 1: glycerol, Mg^2+, trigger 150 mM NaCl, time 0 h
  CTCL, vancomycin release: 0.0014 ± 0.0010 mg/mL
Group 1: glycerol, Mg^2+, trigger 150 mM NaCl, time 0.5 h
  CTCL, vancomycin release: 0.0051 ± 0.0029 mg/mL
Group 1: glycerol, Mg^2+, trigger 150 mM NaCl, time 1.0 h
  CTCL, vancomycin release: 0.0083 ± 0.0042 mg/mL
Group 1: glycerol, Mg^2+, trigger 150 mM NaCl, time 2.0 h
  CTCL, vancomycin release: 0.0098 ± 0.0031 mg/mL
Group 1: glycerol, Mg^2+, trigger 150 mM NaCl, time 3.0 h
  CTCL, vancomycin release: 0.0097 ± 0.0029 mg/mL
Group 2: glycerol, Mg^2+, water, time 0 h
  CTCL, vancomycin release: 0.0008 ± 0.0008 mg/mL
Group 2: glycerol, Mg^2+, water, time 0.5 h
  CTCL, vancomycin release: 0.0008 ± 0.0011 mg/mL
Group 2: glycerol, Mg^2+, water, time 1.0 h
  CTCL, vancomycin release: 0.0022 ± 0.0007 mg/mL
Group 2: glycerol, Mg^2+, water, time 2.0 h
  CTCL, vancomycin release: 0.0007 ± 0.0009 mg/mL
Group 2: glycerol, Mg^2+, water, time 3.0 h
  CTCL, vancomycin release: 0.0012 ± 0.0006 mg/mL
Group 3: no condensation, Mg^2+, trigger 150 mM NaCl, time 0 h
  CTCL, vancomycin release: 0.0018 ± 0.0008 mg/mL
Group 3: no condensation, Mg^2+, trigger 150 mM NaCl, time 0.5 h
  CTCL, vancomycin release: 0.0024 ± 0.0010 mg/mL
Group 3: no condensation, Mg^2+, trigger 150 mM NaCl, time 1.0 h
  CTCL, vancomycin release: 0.0034 ± 0.0009 mg/mL
Group 3: no condensation, Mg^2+, trigger 150 mM NaCl, time 2.0 h
  CTCL, vancomycin release: 0.0034 ± 0.0003 mg/mL
Group 3: no condensation, Mg^2+, trigger 150 mM NaCl, time 3.0 h
  CTCL, vancomycin release: 0.0034 ± 0.0003 mg/mL
Group 4: no condensation, no stabilization, trigger 150 mM NaCl, time 0 h
  CTCL, vancomycin release: 0.0033 ± 0.0022 mg/mL
Group 4: no condensation, no stabilization, trigger 150 mM NaCl, time 0.5 h
  CTCL, vancomycin release: 0.0034 ± 0.0014 mg/mL
Group 4: no condensation, no stabilization, trigger 150 mM NaCl, time 1.0 h
  CTCL, vancomycin release: 0.0022 ± 0.0005 mg/mL
Group 4: no condensation, no stabilization, trigger 150 mM NaCl, time 2.0 h
  CTCL, vancomycin release: 0.0011 ± 0.0010 mg/mL
Group 4: no condensation, no stabilization, trigger 150 mM NaCl, time 3.0 h
  CTCL, vancomycin release: 0.0013 ± 0.0011 mg/mL
Mg^2+, 150 mM NaCl
  release after exposure to physiological trigger: release was observed
Mg^2+, no trigger
  release where the trigger was absent: almost no release was observed
